From US20070254917A1, “INTRACELLULAR RECEPTOR MODULATOR COMPOUNDS AND METHODS” (priority 2004, published 2007) come the findings set out here.

A word on the Ki: it is a dissociation constant, usually derived from enzyme kinetics or from competition with a known ligand.

The target in the assay is T1, human glucocorticoid receptor protein (GR) (Homo sapiens, UniProt P04150).
T1 construct: made in house; host or cells: Sf21 insect cells (baculovirus)
T1 sequence (P04150 1-777): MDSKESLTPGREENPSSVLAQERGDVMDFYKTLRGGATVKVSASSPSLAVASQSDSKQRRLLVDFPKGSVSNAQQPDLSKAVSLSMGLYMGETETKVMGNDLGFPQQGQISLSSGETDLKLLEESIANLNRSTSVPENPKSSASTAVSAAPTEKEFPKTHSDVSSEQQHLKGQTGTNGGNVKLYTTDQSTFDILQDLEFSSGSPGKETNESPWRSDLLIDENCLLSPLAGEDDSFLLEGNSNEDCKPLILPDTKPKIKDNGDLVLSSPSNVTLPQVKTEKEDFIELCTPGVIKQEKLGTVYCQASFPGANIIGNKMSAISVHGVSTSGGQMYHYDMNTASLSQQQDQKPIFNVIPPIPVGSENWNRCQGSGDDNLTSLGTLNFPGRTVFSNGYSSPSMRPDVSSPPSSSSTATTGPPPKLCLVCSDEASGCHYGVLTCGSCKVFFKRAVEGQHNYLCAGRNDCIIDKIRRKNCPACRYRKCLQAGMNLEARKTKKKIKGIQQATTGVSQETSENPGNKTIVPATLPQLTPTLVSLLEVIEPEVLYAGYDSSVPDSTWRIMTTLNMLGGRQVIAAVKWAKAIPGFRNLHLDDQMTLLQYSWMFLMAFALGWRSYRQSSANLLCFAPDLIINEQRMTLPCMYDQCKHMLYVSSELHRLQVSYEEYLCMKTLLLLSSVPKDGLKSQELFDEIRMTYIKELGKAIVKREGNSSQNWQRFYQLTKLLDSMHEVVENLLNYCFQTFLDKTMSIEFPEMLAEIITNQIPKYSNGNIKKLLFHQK
Briefly: Glucocorticoid binding assay ([3H]dexamethasone displacement, GR lysate). To be noted: baculovirus-expressed GR lysate from Sf21 cells; 2-4 nM [3H]dexamethasone; 16 hours at 4° C.; Cheng-Prusoff from IC50.
Description: A baculovirus expression plasmid comprising cDNA encoding the human glucocorticoid receptor protein (GR) was prepared using standard techniques. […] That expression plasmid was co-transfected together with wild type Autographa californica multiple nuclear polyhedrosis virus DNA into Spodopter frugiperda-21 (Sf-21) cells to generate recombinant virus comprising GR cDNA. […] That recombinant virus comprising GR cDNA was collected.
A suspension culture of uninfected Sf21 cells was grown to a density of 1.2×10^6 cells/ml and then infected with the recombinant virus comprising GR cDNA at a multiplicity of infection of 2. Those infected Sf21 cells were incubated for 48 hours and then collected by centrifugation at 1000×g for 10 minutes at 4° C. The resulting cell pellets were resuspended in lysis buffer (50 mM Potassium Phosphate buffer, pH 7.0, 10 mM Monothioglycerol, 5 mM DTT, 20 mM Sodium Molybdate, 1 mM PMSF, 1 μg/mL aprotinin, and 10 μg/mL leupeptin) and incubated for 15 minutes on ice. Those resuspended cell pellets were homogenized using a Dounce homogenizer and a B pestle. A volume of 2 M KCl was added to the homogenized cell pellets to a final concentration of 0.4 M. The resulting GR lysates were centrifuged at 100,000×g for 60 min at 4° C. and stored for use in binding assays.
Binding assay samples were prepared in separate mini-tubes in a 96-well format at 4° C. […] Each reference compound and test compound was assayed at varying concentrations, ranging from 0 to 10^−5 M. Each concentration of each reference compound and each test compound was assayed in triplicate. The assay samples were incubated for 16 hours at 4° C.
After incubation, 200 μl of 6.25% hydroxylapatite in assay buffer was added to each assay sample to precipitate the protein. The assay samples were then centrifuged and the supernatants were discarded. The resulting pellets were washed twice with assay buffer lacking DTT. Radioactivity in counts per minute (CPM) of each washed pellet was determined by liquid scintillation counter (MicroBeta™, Wallach).
Compound `COc1ccc(Cl)cc1-c1cc(C)c2c(c1Cl)C(C)CC(C)(C)N2` (racemic) [Compound 121, (±)-5-Chloro-6-(5-chloro-2-methoxyphenyl)-1,2,3,4-tetrahydro-2,2,4,8-tetramethylquinoline] gave a Ki of 14 nM.

Consider `Cc1cc(-c2c(C)noc2C)c(Cl)c2c1NC(C)(C)C(O)C2C` (racemic) [Compound 192, (±)-5-Chloro-6-(3,5-dimethylisoxazol-4-yl)-1,2,3,4-tetrahydro-3α-hydroxy-2,2,4α,8-tetramethylquinoline], for which the affinity corresponds to a Ki of 9.4 nM. The Ki values of the last two compounds are within 1.5-fold of each other. For the compound `Cc1cc(-c2cc3ccccc3s2)c(Cl)c2c1NC(C)(C)CC2C` (racemic) [Compound 116, (±)-6-(Benzothiophen-2-yl)-5-chloro-1,2,3,4-tetrahydro-2,2,4,8-tetramethylquinoline], the affinity corresponds to a Ki of 420 nM. Compound `Cc1cc(-c2cccc3ccccc23)c(Cl)c2c1NC(C)(C)CC2(C)O` (racemic) [Compound 215, (±)-5-Chloro-1,2,3,4-tetrahydro-4-hydroxy-2,2,4,8-tetramethyl-6-(naphthal-1-yl)quinoline] had a Ki of 5.9 nM. The same measure for `Cc1cc(-c2cccc3c2OCC(=O)N3)c(Cl)c2c1NC(C)(C)CC2C` (racemic) [Compound 204, (±)-6-(2H-1,4-Benzoxazin-3(4H)-on-8-yl)-5-chloro-1,2,3,4-tetrahydro-2,2,4,8-tetramethylquinoline]: 26 nM. The same measure for `Cc1cc(-c2ccccc2[N+](=O)[O-])c(Cl)c2c1NC(C)(C)CC2C` (racemic) [Compound 122, (±)-5-Chloro-1,2,3,4-tetrahydro-2,2,4,8-tetramethyl-6-(2-nitrophenyl)quinoline]: 78 nM; for `CC(=O)c1ccccc1-c1cc(C)c2c(c1Cl)C(C)CC(C)(C)N2` (racemic) [Compound 119, (±)-6-(2-Acetylphenyl)-5-chloro-1,2,3,4-tetrahydro-2,2,4,8-tetramethylquinoline]: 97 nM; for `Cc1cc(-c2cccc(C(F)(F)F)c2F)c(Cl)c2c1NC(C)(C)CC2C` (racemic) [Compound 130, (±)-5-Chloro-6-[2-fluoro-3-(trifluoromethyl)phenyl]-1,2,3,4-tetrahydro-2,2,4,8-tetramethylquinoline]: 81 nM. Compound `Cc1cc(-c2cccc3c2CCC3=NO)c(Cl)c2c1NC(C)(C)CC2C` (racemic) [Compound 154, (±)-5-Chloro-6-(1-hydroxyiminoindan-4-yl)-1,2,3,4-tetrahydro-2,2,4,8-tetramethylquinoline] came in with an inhibition constant Ki of 0.4 nM. `COc1c(O)cccc1-c1cc(C)c2c(c1Cl)C(C)CC(C)(C)N2` (racemic) [Compound 151, (±)-5-Chloro-1,2,3,4-tetrahydro-6-(3-hydroxy-2-methoxyphenyl)-2,2,4,8-tetramethylquinoline] had a Ki of 3.6 nM. In turn, `Cc1cc(-c2cccc3c2NCC3)c(Cl)c2c1NC(C)(C)CC2C` (racemic) [Compound 210, (±)-5-Chloro-1,2,3,4-tetrahydro-6-(indolin-7-yl)-2,2,4,8-tetramethylquinoline] came in with an inhibition constant (Ki) of 5.7 nM. Against the preceding compound, the Ki is about 1.6-fold higher. `CC(C)=CCC1(C)C(=O)C(C)(C)Nc2c(C)cc(-c3c(C)noc3C)c(Cl)c21` (racemic) [Compound 185, (±)-5-Chloro-4-(3,3-dimethylallyl)-6-(3,5-dimethylisoxazol-4-yl)-1,4-dihydro-2,2,4,8-tetramethyl-2H-quinolin-3-one] showed a Ki of 2.5 nM.

Consider `COc1c(C#N)cccc1-c1cc(C)c2c(c1Cl)C(C)C(=O)C(C)(C)N2` (racemic) [Compound 179, (±)-5-Chloro-6-(3-cyano-2-methoxyphenyl)-1,4-dihydro-2,2,4,8-tetramethyl-2H-quinolin-3-one], for which affinity was put at a Ki of 2.6 nM. Next, `COc1c(C#N)cccc1-c1cc(C)c2c(c1Cl)C(C)C(O)C(C)(C)N2` (racemic) [Compound 191, (±)-5-Chloro-6-(3-cyano-2-methoxyphenyl)-1,2,3,4-tetrahydro-3α-hydroxy-2,2,4α,8-tetramethylquinoline]: 4.8 nM; `Cc1cc(-c2c(C)noc2C)c(Cl)c2c1NC(C)(C)C(O)C2C` (racemic) [Compound 164, (±)-5-Chloro-6-(3,5-dimethylisoxazol-4-yl)-1,2,3,4-tetrahydro-3β-hydroxy-2,2,4α,8-tetramethylquinoline]: 3.3 nM. Next, `Cc1cc(-c2csc3ccccc23)c(Cl)c2c1NC(C)(C)CC2C` (racemic) [Compound 109, (±)-6-(Benzothiophen-3-yl)-5-chloro-1,2,3,4-tetrahydro-2,2,4,8-tetramethylquinoline]: 4 nM. Next, `CC(C)=CCOc1c(-c2cc(C)c3c(c2Cl)C(C)CC(C)(C)N3)cccc1[N+](=O)[O-]` (racemic) [Compound 203, (±)-5-Chloro-1,2,3,4-tetrahydro-2,2,4,8-tetramethyl-6-[2-(methylbut-2-enyloxy)-3-nitrophenyl]quinoline]: 56 nM; `Cc1cc(-c2csc3ccccc23)c(Cl)c2c1NC(C)(C)C(O)C2C` (racemic) [Compound 194, (±)-6-(Benzothiophen-3-yl)-5-chloro-1,2,3,4-tetrahydro-3α-hydroxy-2,2,4α,8-tetramethylquinoline]: 13 nM. As to `Cc1cc(-c2ccsc2)c(Cl)c2c1NC(C)(C)C(O)C2C` (racemic) [Compound 160, (±)-5-Chloro-1,2,3,4-tetrahydro-3β-hydroxy-2,2,4α,8-tetramethyl-6-(thiophen-3-yl)quinoline], the Ki is 130 nM. The compound `Cc1cc(-c2ccc(F)c3c(C)c[nH]c23)c(Cl)c2c1NC(C)(C)CC2C` (racemic) [Compound 147, (±)-5-Chloro-6-(4-fluoro-3-methylindol-7-yl)-1,2,3,4-tetrahydro-2,2,4,8-tetramethylquinoline] returned a Ki of 2 nM. Against the preceding compound, the Ki is about 65-fold lower.

Regarding `Cc1cc(-c2cccc3ccccc23)c(Cl)c2c1NC(C)(C)CC2C` (racemic) [Compound 135, (±)-5-Chloro-1,2,3,4-tetrahydro-2,2,4,8-tetramethyl-6-(naphthal-1-yl)quinoline], the inhibition constant Ki is 8.8 nM. Against the preceding compound, the Ki is about 4.4-fold higher. In the case of `COc1cccc(OC)c1-c1cc(C)c2c(c1Cl)C(C)CC(C)(C)N2` (racemic) [Compound 104, (±)-5-Chloro-6-(2,6-dimethoxyphenyl)-1,2,3,4-tetrahydro-2,2,4,8-tetramethylquinoline], the Ki turned out to be 34 nM. This Ki is about 3.9-fold higher than that of the compound before.

`Cc1cc(-c2ccccc2Cl)c(Cl)c2c1NC(C)(C)CC2C` (racemic) [Compound 118, (±)-5-Chloro-6-(2-chlorophenyl)-1,2,3,4-tetrahydro-2,2,4,8-tetramethylquinoline] had a Ki of 22 nM. Compared with the last compound, the Ki is about 1.5-fold lower.

`Cc1cc(-c2cccc3c2OCC(=O)N3C)c(Cl)c2c1NC(C)(C)CC2C` (racemic) [Compound 205, (±)-5-Chloro-1,2,3,4-tetrahydro-2,2,4,8-tetramethyl-6-(4-methyl-2H-1,4-benzoxazin-3(4H)-on-8-yl)quinoline]: affinity was put at a Ki of 87 nM. The same measure for `COc1c(-c2cc(C)c3c(c2Cl)C(C)CC(C)(C)N3)cccc1[N+](=O)[O-]` (racemic) [Compound 156, (±)-5-Chloro-1,2,3,4-tetrahydro-6-(2-methoxy-3-nitrophenyl)-2,2,4,8-tetramethylquinoline]: 2.9 nM; for `Cc1cc(-c2cccc(C#N)c2C)c(Cl)c2c1NC(C)(C)CC2C` (racemic) [Compound 155, (±)-5-Chloro-6-(3-cyano-2-methylphenyl)-1,2,3,4-tetrahydro-2,2,4,8-tetramethylquinoline]: 1.4 nM.
